Reference: patent US11098056B2, “UDP glycosyltransferase inhibitors and methods of use” (GENZYME CORPORATION, priority 2018, dated 2021)

Target: T1, UGT8 (Homo sapiens, UniProt Q16880)
T1 construct: host or cells: OE19 cells
T1 sequence (Q16880 21-541): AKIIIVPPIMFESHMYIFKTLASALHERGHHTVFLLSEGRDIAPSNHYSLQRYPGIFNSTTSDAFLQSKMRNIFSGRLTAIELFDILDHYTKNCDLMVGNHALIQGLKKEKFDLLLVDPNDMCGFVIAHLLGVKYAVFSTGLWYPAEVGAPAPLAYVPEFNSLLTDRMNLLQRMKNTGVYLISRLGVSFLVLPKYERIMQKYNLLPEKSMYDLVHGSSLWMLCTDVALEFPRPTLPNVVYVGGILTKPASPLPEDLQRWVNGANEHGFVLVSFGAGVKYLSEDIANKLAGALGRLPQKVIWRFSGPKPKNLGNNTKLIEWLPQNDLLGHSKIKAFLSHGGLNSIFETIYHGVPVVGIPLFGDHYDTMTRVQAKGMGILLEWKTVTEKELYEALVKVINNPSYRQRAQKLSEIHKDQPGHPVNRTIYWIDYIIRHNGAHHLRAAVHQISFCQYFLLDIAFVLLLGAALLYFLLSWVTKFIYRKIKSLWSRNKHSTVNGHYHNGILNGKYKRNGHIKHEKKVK
Experiment: In vitro sulfatide (SFT) synthesis inhibition in OE19 cells, LC-MS/MS readout
Format: cell-based
Settings: 72 hr, sulfatide by LC-MS/MS; for IC50: read-out: Potency range (IC50, In-vitro SFT)
Protocol: For medium throughput screening, library compounds were dispensed into CellBIND 384 well plates to a final concentration of 10 μM. OE19 cells (Sigma) were grown in to 70-90% confluency in RPMI 1640+L-glutamine and […]; were trypsinized to achieve suspension and were aliquoted at 2,500 cells/well, total well volume 50 μl. Plates were incubated 72 hr at 37° C. in 5% CO2; supernatant was removed and plates were dried, heat-sealed and stored at −20° C. until analysis.
For IC50 determinations, the same procedure was followed except that test compounds were added to the plate as dose-downs in triplicate to yield concentration response curves.
Mass Spectrometer Analysis of Sulfatide (SFT):
Assay plates were thawed and 85 μl mobile phase B (5 mM ammonium formate^+0.2% formic acid in 50:50 methanol:acetonitrile). Fifteen μl 20 ng/ml C17 SFT in mobile phase B was added as an internal standard.
SFT was analyzed using an Applied Biosystems API-4000 triple quad mass spectrometer interfaced to a Thermo Scientific Multiplex system (LX-4) equipped with four pumps. Chromatography of OE19 cell samples or 2B5-mouse cells treated with compounds was performed using a Waters Acquity UPLC BEH C8 2.1×50 mm column with 1.7 um particle size. The chromatography was performed using the following mobile phases. Mobile phase A (MPA): 0.2% formic acid and 5 mM ammonium formate in deionized water; MPB: see above. The LC method was run in isocratic mode for 4 sequentially running columns using 95% MPB and 5% MPA with flow rate of 1 ml/min and a column temperature of 60° C.
The Triple quad mass spectrometer was run in Negative Ionization mode monitoring the following MRM transitions and using the following parameters:
Electrospray voltage was […], and source temperature was 550° C.

Row | IC50 | Potency range (IC50, In-vitro SFT) | SMILES
1 | 100 to 1000 nM |  | CNC(=O)c1csc2c(C(F)(F)F)cc(OC3CC4COCC(C3)N4C(=O)OC(C)(C)C)nc12 (racemic) [Example 628, tert-Butyl (+/−)-endo7-((3-(methylcarbamoyl)-7-(trifluoromethyl)thieno[3,2-b]pyridin-5-yl)oxy)-3-oxa-9-azabicyclo[3.3.1]nonane-9-carboxylate]
2 | < 100 nM |  | CNC(=O)c1csc2c(C(F)(F)F)nc(N3CCC(OC(=O)N[C@@H](C)C4CC4)CC3)nc12 [Example 187, 1-(7-(Methylcarbamoyl)-4-(trifluoromethyl)thieno[3,2-d]pyrimidin-2-yl)piperidin-4-yl-(S)-(1-cyclopropylethyl)carbamate]
3 | 100 to 1000 nM |  | CNC(=O)c1csc2c(C(F)(F)F)cc(OCC3CN(C(=O)OC(C)(C)C)C3)nc12 [Example 585, tert-Butyl 3-(((3-(methylcarbamoyl)-7-(trifluoromethyl)thieno[3,2-b]pyridin-5-yl)oxy)methyl)azetidine-1-carboxylate]
4 | < 100 nM |  | CNC(=O)c1csc2c(C(F)(F)F)cc(O[C@H]3CCN(C(=O)OCCOC(F)(F)F)C3)nc12 [Example 600, 2-(Trifluoromethoxy)ethyl (S)-3-((3-(methylcarbamoyl)-7-(trifluoromethyl)thieno[3,2-b]pyridin-5-yl)oxy)pyrrolidine-1-carboxylate]
5 | < 100 nM |  | CNC(=O)c1csc2c(C(F)(F)F)cc(N3CC[C@H](OC(=O)N[C@@H](C)COC(F)(F)F)[C@@H](F)C3)nc12 (racemic) [Example 418]
6 | < 100 nM |  | CNC(=O)c1csc2c(C(F)(F)F)nc(N3CCC(OC(=O)N[C@@H](C)COC)CC3)nc12 [Example 186, 1-(7-(Methylcarbamoyl)-4-(trifluoromethyl)thieno[3,2-d]pyrimidin-2-yl)piperidin-4-yl (S)-(1-methoxypropan-2-yl)carbamate]
7 | < 100 nM |  | CNC(=O)c1csc2c(C(F)(F)F)c(F)c(N3CCC(OC(=O)N[C@@H](C)C4CC4)CC3)nc12 [Example 639, [1-[6-Fluoro-3-(methylcarbamoyl)-7-(trifluoromethyl)thieno[3,2-b]pyridin-5-yl]-4-piperidyl] N-[(1S)-1-cyclopropylethyl]carbamate]
8 | < 100 nM |  | CNC(=O)c1csc2c(C(F)(F)F)cc(O[C@H]3CCN(C(=O)OC[C@@H](C)OC(F)(F)F)C3)nc12 [Example 858, (R)-2-(Trifluoromethoxy)propyl (S)-3-((3-(methylcarbamoyl)-7-(trifluoromethyl)thieno[3,2-b]pyridin-5-yl)oxy)pyrrolidine-1-carboxylate]
9 | < 100 nM |  | CNC(=O)c1csc2c(C(F)(F)F)cc(CC3CCN(C(=O)OCCOC(F)(F)F)CC3)nc12 [Example 632, 2-(Trifluoromethoxy)ethyl 4-((3-(methylcarbamoyl)-7-(trifluoromethyl)thieno[3,2-b]pyridin-5-yl)methyl)piperidine-1-carboxylate]
10 | < 100 nM |  | CC[C@H](C)NC(=O)OC1CCN(c2cc(C(F)(F)F)c3scc(C(=O)NC)c3n2)CC1 [Example 63, 1-(3-(Methylcarbamoyl)-7-(trifluoromethyl)thieno[3,2-b]pyridin-5-yl)piperidin-4-yl (S)-sec-butylcarbamate]
11 | 100 to 1000 nM |  | CC(C)(C)NC(=O)OC1CCN(c2cc(C(F)(F)F)c3scc(C(=O)N4CCC4)c3n2)CC1 [Example 422, 1-(3-(Azetidine-1-carbonyl)-7-(trifluoromethyl)thieno[3,2-b]pyridin-5-yl)piperidin-4-yl tert-butylcarbamate]
12 | 100 to 1000 nM |  | CNC(=O)c1csc2c(C)cc(N3CCN(CC(=O)NC(C)C)CC3)nc12 [Example 48, 5-(4-(2-(Isopropylamino)-2-oxoethyl)piperazin-1-yl)-N,7-dimethylthieno[3,2-b]pyridine-3-carboxamide]
13 | < 100 nM |  | CNC(=O)c1csc2c(C(F)(F)F)cc(N3CC[C@@H](OC(=O)NC(C)C)[C@H](F)C3)nc12 [Example 495, (3R,4R)-3-Fluoro-1-(3-(methylcarbamoyl)-7-(trifluoromethyl)thieno[3,2-b]pyridin-5-yl)piperidin-4-yl isopropylcarbamate]
14 | < 100 nM |  | CNC(=O)c1csc2c(C(F)(F)F)cc(N3CC[C@H](OC(=O)N(C(C)C)C(C)C)[C@@H](F)C3)nc12 (racemic) [Example 488, (+/−)-trans-3-Fluoro-1-(3-(methylcarbamoyl)-7-(trifluoromethyl)thieno[3,2-b]pyridin-5-yl)piperidin-4-yl diisopropylcarbamate]
15 | < 100 nM |  | CNC(=O)c1csc2c(C(F)(F)F)c(C)c(OC3CCN(C(=O)OCCOC(F)(F)F)CC3)nc12 [Example 390, 2-(Trifluoromethoxy)ethyl 4-((6-methyl-3-(methylcarbamoyl)-7-(trifluoromethyl)thieno[3,2-b]pyridin-5-yl)oxy)piperidine-1-carboxylate]
16 | < 100 nM |  | CNC(=O)c1csc2c(C(F)(F)F)c(C)c(OC3CCN(C(=O)OC(C)(C)C)CC3)nc12 [Example 389, tert-Butyl 4-((6-methyl-3-(methylcarbamoyl)-7-(trifluoromethyl)thieno[3,2-b]pyridin-5-yl)oxy)piperidine-1-carboxylate]
17 | > 1000 nM |  | CNC(=O)c1csc2c(C(F)(F)F)cc(N3CCC(NC(=O)O[C@H]4CCN(C)[C@H]4C)CC3)nc12 [Example 809, (2S,3S)-1,2-Dimethylpyrrolidin-3-yl (1-(3-(methylcarbamoyl)-7-(trifluoromethyl)thieno[3,2-b]pyridin-5-yl)piperidin-4-yl)carbamate]
18 | < 100 nM |  | CNC(=O)c1csc2c(C(F)(F)F)cc(N3CCC(OC(=O)N4CC(OC(F)(F)F)C4)CC3)nc12 [Example 88, 1-(3-(Methylcarbamoyl)-7-(trifluoromethyl)thieno[3,2-b]pyridin-5-yl)piperidin-4-yl 3-(trifluoromethoxy)azetidine-1-carboxylate]
19 | < 100 nM |  | CNC(=O)c1csc2c(C(F)(F)F)cc(N3CCC(OCCN4CCC(F)(F)C4)CC3)nc12 [Example 361, 5-(4-(2-(3,3-Difluoropyrrolidin-1-yl)ethoxy)piperidin-1-yl)-N-methyl-7-(trifluoromethyl)thieno[3,2-b]pyridine-3-carboxamide]
20 | < 100 nM |  | CNC(=O)c1csc2c(C(F)(F)F)cc(N3CC4(CN(C(=O)OC5COC5)C4)C3)nc12 [Example 339, Oxetan-3-yl 6-(3-(methylcarbamoyl)-7-(trifluoromethyl)thieno[3,2-b]pyridin-5-yl)-2,6-diazaspiro[3.3]heptane-2-carboxylate]
21 | < 100 nM |  | CNC(=O)c1csc2c(C(F)(F)F)c(C)c(N3CCC(OC(=O)N[C@@H](C)C4CC4)CC3)nc12 [Example 151, 1-(6-Methyl-3-(methylcarbamoyl)-7-(trifluoromethyl)thieno[3,2-b]pyridin-5-yl)piperidin-4-yl (S)-(1-cyclopropylethyl)carbamate]
22 |  | A (A < 0.1 uM) | CNC(=O)c1csc2c(C(F)(F)F)cc(N3CCC(OC(=O)NCC4CC4)CC3)nc12.Cl [Example 669, [1-[3-(Methylcarbamoyl)-7-(trifluoromethyl)thieno[3,2-b]pyridin-5-yl]-4-piperidyl] N-(cyclopropylmethyl)carbamate hydrochloride]

Row | SMILES | IC50 | Potency range (IC50, In-vitro SFT)
23 | CNC(=O)c1csc2c(C(F)(F)F)cc(OC3CC4(CCN4C(=O)OCCOC(F)(F)F)C3)nc12 (stereo not shown) [Example 212, 2-(Trifluoromethoxy)ethyl 6-((3-(methylcarbamoyl)-7-(trifluoromethyl)thieno[3,2-b]pyridin-5-yl)oxy)-1-azaspiro[3.3]heptane-1-carboxylate] | 100 to 1000 nM | 
24 | COC(=O)c1csc2c(C(F)(F)F)cc(C3CCN(C(=O)OC(C)(C)C)CC3)nc12 [Example 274, Methyl 5-(1-(tert-butoxycarbonyl)piperidin-4-yl)-7-(trifluoromethyl)thieno[3,2-b]pyridine-3-carboxylate] | 100 to 1000 nM | 
25 | CNC(=O)c1csc2c(C(F)(F)F)cc(OC3CC4(C3)CN(C(=O)O[C@H](C)C3CC3)C4)nc12 [Example 204, (R)-1-Cyclopropylethyl 6-((3-(methylcarbamoyl)-7-(trifluoromethyl)thieno[3,2-b]pyridin-5-yl)oxy)-2-azaspiro[3.3]heptane-2-carboxylate] | < 100 nM | 
